Source: patent US6355799B1, “Substituted benzene compounds, process for their preparation, and herbicidal and defoliant compositions containing them” (ISK Americas Incorporated, priority 1997, dated 2002)

Legend:
Format in all cases: in vivo
[1] = tested on: redroot pigweed (Amaranthus retroflexus, AMARE); assay: Pre-emerge test, greenhouse herbicide activity screening; details: pre-emerge, phytotoxicity rating 0-100 at 14 days after application
In short: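 Rating: 0–100 visual injury, 14 DAA. Application: acetone, 187 l/ha, 15–1000 g ai/ha, flat-fan track sprayer with nozzle 40–45 cm above soil or canopy. Post-emerge runs used 0.25% v/v surfactant on 2–3 leaf plants.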

[2] = tested on: barnyardgrass (Echinochloa crus-galli, ECHCG); assay: as above; details: pre-emerge, phytotoxicity rating 0-100 at 14 days after application
In short: (§1)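 Visual ratings on a 0-100 scale (0 no damage, 100 all plants dead) were taken at 14 days after treatment. Rates of 15-1000 g ai/ha in acetone, 187 l/ha, were sprayed onto soil one day after planting (pre-emerge) or onto 2-3 leaf plants with 0.25% v/v surfactant (post-emerge).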

[3] = tested on: green foxtail (Setaria viridis, SETVI); assay: as above; details: pre-emerge, phytotoxicity rating 0-100 at 14 days after application
In short: as §1

[4] = tested on: ivyleaf morningglory (Ipomoea hederacea, IPOHE); assay: as above; details: pre-emerge, phytotoxicity rating 0-100 at 14 days after application
In short: as §1

[5] = tested on: johnsongrass (Sorghum halepense, SORHA); assay: as above; details: pre-emerge, phytotoxicity rating 0-100 at 14 days after application
In short: as §1

[6] = tested on: lambsquarters (Chenopodium album, CHEAL); assay: as above; details: pre-emerge, phytotoxicity rating 0-100 at 14 days after application
In short: as §1

[7] = tested on: large crabgrass (Digitaria sanguinalis, DIGSA); assay: as above; details: pre-emerge, phytotoxicity rating 0-100 at 14 days after application
In short: as §1

[8] = tested on: sicklepod (Cassia obtusifolia, CASOB); assay: as above; details: pre-emerge, phytotoxicity rating 0-100 at 14 days after application
In short: as §1

[9] = tested on: velvetleaf (Abutilon theophrasti, ABUTH); assay: as above; details: pre-emerge, phytotoxicity rating 0-100 at 14 days after application
In short: as §1

[10] = tested on: field corn (Zea mays L., var. Dekalb 535, CORN); assay: Pre-emerge test, crop safety; details: crop damage, pre-emerge, phytotoxicity rating 0-100 at 14 days after application
In short: (§2)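 Plants grown in 10 cm pots of sandy loam mix received acetone-dissolved compounds through a moving flat-fan nozzle. Doses ranged from 15 to 1000 g ai/ha. Pre-emerge pots were seeded one day earlier, post-emerge pots 8–21 days earlier. Fourteen days on, each pot was graded 0–100 for damage.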

[11] = tested on: upland rice (Oryza sp., var. Tebonnet, RICE); assay: Pre-emerge test, crop safety; details: crop damage, pre-emerge, phytotoxicity rating 0-100 at 14 days after application
In short: as §2

[12] = tested on: barnyardgrass (Echinochloa crus-galli, ECHCG); assay: Post-emerge test, greenhouse herbicide activity screening; details: post-emerge, phytotoxicity rating 0-100 at 14 days after application
In short: (§3)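 Herbicidal damage is scored 0 (none) to 100 (complete plant death) two weeks after a simulated field spray. Rates span 15–1000 g ai/ha, delivered in acetone at 187 l/ha. For post-emergence treatments, plants have 2–3 leaves and the spray carries 0.25% v/v non-ionic surfactant.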

[13] = tested on: green foxtail (Setaria viridis, SETVI); assay: as above; details: post-emerge, phytotoxicity rating 0-100 at 14 days after application
In short: as §3

[14] = tested on: ivyleaf morningglory (Ipomoea hederacea, IPOHE); assay: as above; details: post-emerge, phytotoxicity rating 0-100 at 14 days after application
In short: as §3

[15] = tested on: johnsongrass (Sorghum halepense, SORHA); assay: as above; details: post-emerge, phytotoxicity rating 0-100 at 14 days after application
In short: as §3

[16] = tested on: lambsquarters (Chenopodium album, CHEAL); assay: as above; details: post-emerge, phytotoxicity rating 0-100 at 14 days after application
In short: as §3

[17] = tested on: large crabgrass (Digitaria sanguinalis, DIGSA); assay: as above; details: post-emerge, phytotoxicity rating 0-100 at 14 days after application
In short: as §3

[18] = tested on: redroot pigweed (Amaranthus retroflexus, AMARE); assay: as above; details: post-emerge, phytotoxicity rating 0-100 at 14 days after application
In short: as §3

[19] = tested on: sicklepod (Cassia obtusifolia, CASOB); assay: as above; details: post-emerge, phytotoxicity rating 0-100 at 14 days after application
In short: as §3

[20] = tested on: velvetleaf (Abutilon theophrasti, ABUTH); assay: as above; details: post-emerge, phytotoxicity rating 0-100 at 14 days after application
In short: as §3

[21] = tested on: field corn (Zea mays L., var. Dekalb 535, CORN); assay: Post-emerge test, crop safety; details: post-emerge, crop damage rating 0-100 at 14 days after application
In short: as §1

[22] = tested on: upland rice (Oryza sp., var. Tebonnet, RICE); assay: Post-emerge test, crop safety; details: post-emerge, crop damage rating 0-100 at 14 days after application
In short: as §1

Cc1c(Cl)cc(F)c(-n2c(=O)cc(C(F)(F)F)n(C)c2=O)c1NC(=O)OCc1ccc(Cl)cc1Cl [4-62]
Pre-emerge Herbicidal Activity AMARE ([1]; rate 63 g ai/ha): 100
Pre-emerge Herbicidal Activity AMARE ([1]; rate 250 g ai/ha): 100
Pre-emerge Herbicidal Activity ECHCG ([2]; rate 63 g ai/ha): 10
Pre-emerge Herbicidal Activity ECHCG ([2]; rate 250 g ai/ha): 60
Pre-emerge Herbicidal Activity SETVI ([3]; rate 63 g ai/ha): 80
Pre-emerge Herbicidal Activity SETVI ([3]; rate 250 g ai/ha): 100
Pre-emerge Herbicidal Activity IPOHE ([4]; rate 63 g ai/ha): 60
Pre-emerge Herbicidal Activity IPOHE ([4]; rate 250 g ai/ha): 30
Pre-emerge Herbicidal Activity SORHA ([5]; rate 63 g ai/ha): 10
Pre-emerge Herbicidal Activity SORHA ([5]; rate 250 g ai/ha): 50
Pre-emerge Herbicidal Activity CHEAL ([6]; rate 63 g ai/ha): 100
Pre-emerge Herbicidal Activity CHEAL ([6]; rate 250 g ai/ha): 100
Pre-emerge Herbicidal Activity DIGSA ([7]; rate 63 g ai/ha): 50
Pre-emerge Herbicidal Activity DIGSA ([7]; rate 250 g ai/ha): 90
Pre-emerge Herbicidal Activity CASOB ([8]; rate 63 g ai/ha): 50
Pre-emerge Herbicidal Activity CASOB ([8]; rate 250 g ai/ha): 100
Pre-emerge Herbicidal Activity ABUTH ([9]; rate 63 g ai/ha): 100
Pre-emerge Herbicidal Activity ABUTH ([9]; rate 250 g ai/ha): 100
Pre-emerge Herbicidal Activity CORN ([10]; rate 63 g ai/ha): 0
Pre-emerge Herbicidal Activity CORN ([10]; rate 250 g ai/ha): 10
Pre-emerge Herbicidal Activity RICE ([11]; rate 63 g ai/ha): 10
Pre-emerge Herbicidal Activity RICE ([11]; rate 250 g ai/ha): 70
Post-emerge Herbicidal Activity ECHCG ([12]; 63 g ai/ha): 20
Post-emerge Herbicidal Activity ECHCG ([12]; 250 g ai/ha): 40
Post-emerge Herbicidal Activity SETVI ([13]; 63 g ai/ha): 60
Post-emerge Herbicidal Activity SETVI ([13]; 250 g ai/ha): 80
Post-emerge Herbicidal Activity IPOHE ([14]; 63 g ai/ha): 100
Post-emerge Herbicidal Activity IPOHE ([14]; 250 g ai/ha): 100
Post-emerge Herbicidal Activity SORHA ([15]; 63 g ai/ha): 30
Post-emerge Herbicidal Activity SORHA ([15]; 250 g ai/ha): 30
Post-emerge Herbicidal Activity CHEAL ([16]; 63 g ai/ha): 100
Post-emerge Herbicidal Activity CHEAL ([16]; 250 g ai/ha): 100
Post-emerge Herbicidal Activity DIGSA ([17]; 63 g ai/ha): 10
Post-emerge Herbicidal Activity DIGSA ([17]; 250 g ai/ha): 50
Post-emerge Herbicidal Activity AMARE ([18]; 63 g ai/ha): 100
Post-emerge Herbicidal Activity AMARE ([18]; 250 g ai/ha): 100
Post-emerge Herbicidal Activity CASOB ([19]; 63 g ai/ha): 90
Post-emerge Herbicidal Activity CASOB ([19]; 250 g ai/ha): 100
Post-emerge Herbicidal Activity ABUTH ([20]; 63 g ai/ha): 100
Post-emerge Herbicidal Activity ABUTH ([20]; 250 g ai/ha): 100
Post-emerge Herbicidal Activity CORN ([21]; 63 g ai/ha): 30
Post-emerge Herbicidal Activity CORN ([21]; 250 g ai/ha): 45
Post-emerge Herbicidal Activity RICE ([22]; 63 g ai/ha): 30
Post-emerge Herbicidal Activity RICE ([22]; 250 g ai/ha): 30
